Laboratory results: patent publication US7977107B2, “Oral detection test for cannabinoid use” (LabOne, Inc., priority 2004, dated 2011)

Columns and labels:
[1] = Detection of THCA in oral fluid samples of test subjects by GC/MS/MS; type: in vivo, human; details: Group C: 26 samples screened and confirmed positive for Δ^9-THC
From the text: Oral fluid samples from 223 test subjects were collected with a commercially available INTERCEPT® oral fluid collection device manufactured by OraSure Technologies, Inc. (Bethlehem, Pa.) in accordance with the manufacturer's instructions. This device comprises an absorbent collection pad (e.g., cotton or a sponge) affixed to the end of a handle. The collection pad of the collection device is placed in the mouth of the subject until the collection pad is substantially saturated with oral fluid, which typically takes about four minutes.
The oral fluid samples were obtained from two drug testing facilities. The samples were divided into three groups: negative screens (A), positive screens (B), and positive confirms (C). Group A consisted of 144 oral fluid samples that had been tested by ELISA for the parent compound Δ^9-THC and were negative for this test (cutoff 4.0 ng/ml Δ^9-THC, cross reactive with THCA at 0.33 ng/ml, no confirmation with GC/MS/MS performed). […] Finally, Group C consisted of 26 oral fluid samples that screened positive by ELISA for the parent compound Δ^9-THC and were also confirmed positive for Δ^9-THC by GC/MS/MS. Each of these samples from Group A, B, and C was then tested for the presence or absence of THCA by GC/MS/MS in accordance with the present invention. […]
Quantitation was performed using the internal standard area of the 495-peak ratio with the 492-peak. […]

[2] = Δ^9-THC metabolism in oral fluid (incubation at about 37° C., THCA assayed versus time); type: in vitro ADME; details: 10 ng/ml Δ^9-THC in certified negative oral fluid, several hours, triplicate
Description: In this example, Δ^9-THC metabolism in oral fluid was investigated. Δ^9-THC was incubated at about 37° C. in oral fluid for several hours. THCA levels were assayed versus time to ensure metabolism of Δ^9-THC to THCA or THCA-glucuronide in the oral cavity or mucosa was not a possible source of the measured result. This was performed in triplicate at 10 ng/ml using certified negative oral fluid samples. Δ^9-THC standard material of known purity was used.
Δ^9-THC metabolism to THCA was not detected during this experiment. Further, it has been reported that Δ^9-THC metabolism occurs in the liver. See Watanabe, et al., A cytochrome P450 isozyme having aldehyde oxygenase activity plays a major role in metabolizing cannabinoids by mouse hepatic microsomes, Biochem Pharmacol., Vol. 46 No. 3, at pp. 405-11 (August 1993).

Row | Compound | THCA level in oral fluid (highest) [1] [pg/mL] | Δ^9-THC metabolism to THCA [2]
1 | 11-nor-Δ^9-THC carboxylic acid [THCA] | ≤ 142 | –
2 | CCCCCc1cc(O)c2c(c1)OC(C)(C)[C@@H]1CCC(C)=C[C@@H]21 [Δ^9-THC, Δ^9-tetrahydrocannabinol] | – | not detected
